We go through 1 molecule from patent publication US11420910B2, “Methods for low temperature fluorine-18 radiolabeling of biomolecules” (KATHOLIEKE UNIVERSITEIT LEUVEN, priority 2014, dated 2022).

A short description of data set [1]: Stability tests of Al18F-complexes in rat serum at 37° C., Example 26. It counts as in vitro ADME. As for the experimental part: (§1) 400 μl of each purified [Al^18F]-complex solution was added to 1 mL of PBS and/or 1 mL of rat serum. […] Finally the supernatant was analysed using iTLC-SG.
Data set [2] is described as follows: Biodistribution of Al18F-complexes and {Al18F}2+ in healthy male NMRI mice. To be noted: for uptake in blood / uptake in bone / uptake in intestines / uptake in kidneys / uptake in liver / uptake in urinary bladder: NMRI mice, tail vein. The data set is classed as in vivo. As for the experimental part: Quantification of radioactivity during biodistribution studies was performed using an automated gamma counter equipped with a 3-inch NaI(TI) well crystal coupled to a multichannel analyzer, mounted in a sample changer (Perkin Elmer 1480 Wizard 3q). Counts were corrected for background radiation, physical decay and counter dead time.
(§2) The biodistribution of the [Al^18F]-L3 complex and {Al^18F}^2+ was determined in healthy male Naval Medical Research Institute (NMRI) mice (body weight: 30-40 g) at 10 and 60 min post injection (p.i.) (n=4/time point). Mice were injected with the [Al^18F]-L3 complex (about 1 MBq) or {Al^18F}^2+ (5.55 MBq) via a tail vein under anesthesia (2.5% isoflurane in O2 at 1 L/min flow rate) and sacrificed by decapitation at above specified time points. Blood and major organs were collected in tared tubes and weighed. The radioactivity in blood, organs and other body parts was counted using an automated γ-counter. For the calculation of total radioactivity in blood, bone and muscle, masses were assumed to be, respectively, 7, 12 and 40% of the total body mass.^20, 21
Quantification of radioactivity during biodistribution studies was performed using an automated gamma counter equipped with a 3-inch Nai(TI) well crystal coupled to a multichannel analyzer, mounted in a sample changer (Perkin Elmer 1480 Wizard 3q). Counts were corrected for background radiation, physical decay and counter dead time.
as §2, with “[Al^18F]-L26” for “[Al^18F]-L3”, “(n=3/time point for 10 min p.i. and n=4/time point for 60 min p.i.).” for “(n=4/time point).”, “mass.^20,21” for “mass.^20, 21”

Data set [3] in a line: Stability test on the semi-automated [Al18F]-L3 batch at room temperature. The data set is classed as physicochemical. Conditions: incubation at room temperature for 2 hours. As for the experimental part: To assess the efficiency of the labeling agent in a more realistic setting, the process for radiosynthesis and purification of [Al^18F]-L3 was performed semi-automatically. [^18F]fluoride was produced and trapped on a SepPak™ Light Accel plus QMA anion as described previously. The [^18F]F^− was eluted from the cartridge with an aqueous solution of sodium chloride 0.9% (0.2 mL) and added to 22.5 μl of 20 mM aluminum chloride (AlCl3) in sodium acetate buffer (0.1 M, pH 4). The solution was incubated at RT for 10 min to form {Al^18F}^2+. A solution of H3L3 (0.5 mL, 1.5 mM) was added and the reactor was heated at 40° C. for 12 min. After dilution with water (0.5 mL), the crude reaction mixture was injected onto a semi-preparative HPLC column (XBridge C18, 5 μm, 4.6 mm×150 mm, Waters) eluted with EtOH: sodium acetate 0.05M pH 5.5, 8:92 (v/v) at a flow rate of 1 mL/min. UV detection of the eluate was performed at 254 nm. Identification of the [Al^18F]-L3 complex was done by radio-LC-HRMS (Acquity UPLC BEH C18, 1.7 μm, 2.1 mm×150 mm, Waters. 0.6 mL/min A: H2O B: ACN, 0-2 min 5% B, 2 to 8 min 5% B to 95% B, 8-10 min 95% B, 10 to 12 min 95% B to 5% B).
H3L3 was labeled with {Al^18F}^2+ in a non-optimized yield of 74% (12 min 40° C., pH 4). The batch (4.63 GBq) was produced with a RCP higher than 98% in 35 min starting after elution of fluorine-18. […]

Data set [4] can be described thus: Stability tests of Al18F-complexes in different buffers ranging from pH 2 to 8 (room temperature, iTLC-SG). The data set is classed as physicochemical. To be noted: for RCP: after 60 min. As for the experimental part:
200 μl of the purified Al^18F-L3 solution was added to 1 mL of sodium phosphate buffer (0.1 M, pH 2), sodium phosphate buffer (0.1 M, pH 3), sodium acetate buffer (0.1 M, pH 4), sodium acetate buffer (0.1 M, pH 5), sodium acetate buffer (0.1 M, pH 6), PBS buffer (0.1 M, pH 7) or Tris-HCl buffer (0.1 M, pH 8). These mixtures were incubated at room temperature and analyzed by iTLC-SG at 30 and 60 min after the start of the incubation.
200 μl of the purified Al^18F-L26 solution was added to 1 mL of sodium phosphate buffer (0.1 M, pH 2), sodium phosphate buffer (0.1 M, pH 3), sodium acetate buffer (0.1 M, pH 4), sodium acetate buffer (0.1 M, pH 5), sodium acetate buffer (0.1 M, pH 6), PBS buffer (0.1 M, pH 7) or Tris-HCl buffer (0.1 M, pH 8). These mixtures were incubated at room temperature and analyzed by iTLC-SG at 30 and 60 min after the start of the incubation.

A short description of data set [5]: Stability tests of Al18F-complexes in PBS (0.1 M, pH 7) at 37° C., Example 26. The data set is classed as physicochemical. Conditions: PBS 0.1 M pH 7, 37° C. As for the experimental part:
as §1

Entries after “also recorded” stand apart in the source; their conditions may differ.

Take `O=C1CN(Cc2ccccc2)CCN2CC(=O)[O][Al-]([18F])([O]1)[O]c1ccccc1C2` (stereo not drawn) [Al^18F-L3]: the “stability in rat serum (in words)” value in data set [1] is listed as “good stability in rat serum; also recorded: stability comparable to that of the previously reported Al^18F-NODA”. Also, the RCP in data set [1] (240 min) was found to be 66%; in data set [4] (sodium acetate buffer 0.1 M pH 4, room temperature), 75%; in data set [4] (sodium phosphate buffer 0.1 M pH 2, room temperature) it was 58%; in data set [4] (sodium phosphate buffer 0.1 M pH 3, room temperature), 68%; in data set [5] (120 min) it was 80%; in data set [5] (240 min), 70%. Further, the uptake in blood was 1.1 % ID in data set [2] (10 min p.i.) and 0.3 % ID in data set [2] (60 min p.i.). Moreover, the uptake in bone in data set [2] (10 min p.i.) amounted to 1.6 % ID; in data set [2] (60 min p.i.), 2.5 % ID. The uptake in intestines amounted to 25.17 % ID in data set [2] (10 min p.i.) and 59.48 % ID in data set [2] (60 min p.i.). Besides, the uptake in kidneys in data set [2] (10 min p.i.) is given as 2.2 % ID; in data set [2] (60 min p.i.), 1.0 % ID. The uptake in liver in data set [2] (10 min p.i.) is 47.83 % ID; in data set [2] (60 min p.i.), 13.53 % ID. In addition, the “uptake in urinary bladder” value in data set [2] (10 min p.i.) turned out to be 13.2 % ID; in data set [2] (60 min p.i.) it was 17.8 % ID. Besides, in data set [2] (mice, 60 min p.i.), the “route of clearance (in words)” value is on record as “hepatobiliary clearance”. Also, the “in vivo stability judged from bone uptake (in words)” value in data set [2] (mice, biodistribution) is “high stability”. Also, the “[Al18F]-L3 still intact” value in data set [3] is reported as “more than 95%”. For the same molecule, in data set [4] (buffers pH 2 to 8, room temperature, 30 and 60 min), the “stability at different pH (in words)” value is “not stable at pH 2, pH 3 and pH 4; also recorded: stable for at least 60 min in the pH range from 5 to 8”. Moreover, in data set [5], the “stability in PBS (in words)” value was “comparable to that of Al^18F-NODA-benzyl up to 60 minutes; also recorded: stability comparable to that of the previously reported Al^18F-NODA”.
